38 compounds from ChEMBL document CHEMBL1135750, “Phenoxyphenyl sulfone N-formylhydroxylamines (retrohydroxamates) as potent, selective, orally bioavailable matrix metalloproteinase inhibitors” (J Med Chem, 2002) can be followed below.

pIC50: −log10 of the molar value.

In data set [1] the target is Matrix metalloproteinase-9 (Homo sapiens, UniProt P14780). The data set can be described thus: In vitro selective inhibition against Matrix metalloprotease-9 (MMP-9) using fluorimetric assay.
The target in the next data set is T1, Interstitial collagenase (Homo sapiens, UniProt P03956).
T1 sequence (P03956 whole entry): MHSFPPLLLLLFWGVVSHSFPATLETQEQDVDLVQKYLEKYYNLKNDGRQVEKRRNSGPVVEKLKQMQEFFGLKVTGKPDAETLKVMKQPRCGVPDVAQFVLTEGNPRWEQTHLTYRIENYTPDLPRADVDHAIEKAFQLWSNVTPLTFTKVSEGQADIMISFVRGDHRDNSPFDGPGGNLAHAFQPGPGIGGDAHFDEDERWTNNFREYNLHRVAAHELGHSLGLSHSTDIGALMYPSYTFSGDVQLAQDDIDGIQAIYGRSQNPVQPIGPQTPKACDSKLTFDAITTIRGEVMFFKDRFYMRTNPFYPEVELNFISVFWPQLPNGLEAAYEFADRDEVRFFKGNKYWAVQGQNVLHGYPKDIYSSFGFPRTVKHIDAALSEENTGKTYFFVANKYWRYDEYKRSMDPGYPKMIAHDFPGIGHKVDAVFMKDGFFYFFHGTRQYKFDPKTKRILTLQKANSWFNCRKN
In words: In vitro selective inhibition against matrix metalloprotease-1 (MMP-1) using a fluorimetric assay.

A short description of data set [2]: AUC in monkey. In kind it is ADME. More on the design: concentration or dose not given beside the values. The note with it: simiiformes, plasma.
In data set [3] the target is 72 kDa type IV collagenase (Homo sapiens, UniProt P08253). The data set can be described thus: In vitro selective inhibition against matrix metalloprotease-2 (MMP-2) using fluorimetric assay.
Sequence of 72 kDa type IV collagenase (P08253 whole entry): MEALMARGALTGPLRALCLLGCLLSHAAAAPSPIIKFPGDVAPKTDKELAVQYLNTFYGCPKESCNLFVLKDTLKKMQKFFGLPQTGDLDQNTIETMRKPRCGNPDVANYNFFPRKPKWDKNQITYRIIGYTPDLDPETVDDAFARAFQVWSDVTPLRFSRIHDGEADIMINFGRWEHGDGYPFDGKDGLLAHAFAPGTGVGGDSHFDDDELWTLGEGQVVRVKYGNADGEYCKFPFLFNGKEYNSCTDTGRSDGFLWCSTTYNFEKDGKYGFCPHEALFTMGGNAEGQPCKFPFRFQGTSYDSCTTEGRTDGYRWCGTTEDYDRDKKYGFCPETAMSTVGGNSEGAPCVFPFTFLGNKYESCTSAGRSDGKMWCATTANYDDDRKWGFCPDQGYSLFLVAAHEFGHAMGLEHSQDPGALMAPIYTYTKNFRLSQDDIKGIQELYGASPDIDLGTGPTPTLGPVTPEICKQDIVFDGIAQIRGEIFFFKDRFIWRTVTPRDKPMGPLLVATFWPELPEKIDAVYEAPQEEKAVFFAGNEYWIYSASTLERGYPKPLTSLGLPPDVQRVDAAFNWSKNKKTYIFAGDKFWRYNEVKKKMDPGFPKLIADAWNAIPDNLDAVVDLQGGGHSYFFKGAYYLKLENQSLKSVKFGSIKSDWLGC
The nature of data set [4]: Half life measured as t1/2 in hours after iv administration in cynomolgus monkey. In kind it is ADME, organism-based, Macaca fascicularis. The note with it: in vivo.

Sequence of Matrix metalloproteinase-9 (P14780 whole entry): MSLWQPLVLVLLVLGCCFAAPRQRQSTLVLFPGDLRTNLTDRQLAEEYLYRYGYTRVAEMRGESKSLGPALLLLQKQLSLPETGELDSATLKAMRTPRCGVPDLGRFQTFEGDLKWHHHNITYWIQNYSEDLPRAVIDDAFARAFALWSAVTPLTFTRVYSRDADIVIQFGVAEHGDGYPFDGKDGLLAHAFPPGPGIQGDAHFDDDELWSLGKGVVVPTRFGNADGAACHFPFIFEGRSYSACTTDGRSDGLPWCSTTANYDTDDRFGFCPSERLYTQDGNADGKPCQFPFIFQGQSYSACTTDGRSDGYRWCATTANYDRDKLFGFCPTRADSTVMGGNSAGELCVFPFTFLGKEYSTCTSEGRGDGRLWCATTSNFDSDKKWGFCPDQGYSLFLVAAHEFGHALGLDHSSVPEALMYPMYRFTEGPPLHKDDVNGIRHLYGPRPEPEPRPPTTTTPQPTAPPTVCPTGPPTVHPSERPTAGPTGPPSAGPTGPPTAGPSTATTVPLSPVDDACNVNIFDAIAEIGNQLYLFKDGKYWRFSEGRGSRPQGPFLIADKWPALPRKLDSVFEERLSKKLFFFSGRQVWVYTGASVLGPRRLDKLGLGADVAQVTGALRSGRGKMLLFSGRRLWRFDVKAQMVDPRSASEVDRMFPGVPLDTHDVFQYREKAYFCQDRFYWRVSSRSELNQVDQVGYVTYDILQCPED

For orientation: pIC50 means the negative decadic logarithm of the IC50, by convention in mol/L. Broadly, the AUC is concentration integrated over time. On to `CS(=O)(=O)N1CCC[C@H]1[C@@H](CS(=O)(=O)c1ccc(Oc2ccc(OC(F)(F)F)cc2)cc1)N(O)C=O`, for which the results for the pIC50 (in data set [1]; against Interstitial collagenase; in data set [3]) were 8.70, 5.10 and 8.72, respectively. This compound also had an AUC in data set [2] of 24 µM·h.
On to `Cn1c(C(CS(=O)(=O)c2ccc(Oc3ccc(OC(F)(F)F)cc3)cc2)N(O)C=O)cc2ccccc21` (centres undefined), for which the pIC50 was 7.92 in data set [1], under 4.30 against Interstitial collagenase and 8.02 in data set [3].
With `CC1(C)OC[C@@H]([C@@H](CS(=O)(=O)c2ccc(Oc3ccc(OC(F)(F)F)cc3)cc2)N(O)C=O)O1` (stereo in doubt; 19v), the pIC50 in data set [1] is 8.64; against Interstitial collagenase it was under 4.30; in data set [3] it was 8.20.
Consider `O=C(C[C@H](CSc1ccccc1)C(=O)O)c1ccc(-c2ccc(Cl)cc2)cc1` [TANOMASTAT], for which the pIC50 in data set [1] is 6.52; on Interstitial collagenase, under 5.30; in data set [3], 7.96.
Regarding `O=CN(O)C(CCc1ccc(C(=O)O)cc1)CS(=O)(=O)c1ccc(Oc2ccc(OC(F)(F)F)cc2)cc1` (centres undefined), the pIC50 is 9.28 in data set [1], under 4.30 on Interstitial collagenase and 9.28 in data set [3]. In data set [2], this compound returned an AUC of 16 µM·h.
As to `CC1(C)OCC(C[C@@H](CS(=O)(=O)c2ccc(Oc3ccc(OC(F)(F)F)cc3)cc2)N(O)C=O)O1` (some centres undefined), the figures for the pIC50 (in data set [1]; against Interstitial collagenase; in data set [3]) were 8.26, under 4.30 and 8.82, respectively. The AUC in data set [2] was found to be 2 µM·h.
For `CCC1(CC)OCC([C@@H](CS(=O)(=O)c2ccc(Oc3ccc(OC(F)(F)F)cc3)cc2)N(O)C=O)O1` (some centres undefined), the pIC50 was 8.96 in data set [1], 5.08 on Interstitial collagenase and 7.70 in data set [3]. Also, the AUC in data set [2] was determined as 5 µM·h.
Turning to `CC1(C)NC(=O)N(CC(CS(=O)(=O)c2ccc(Oc3ccc(C#N)cc3)cc2)N(O)C=O)C1=O` (centres undefined), the negative-log IC50 (pIC50) in data set [1] was 8.41; against Interstitial collagenase, 6.00; in data set [3] it was 9.03. In data set [2], this compound had an AUC of 1 µM·h.
For the compound `O=CN(O)C(COCCO)CS(=O)(=O)c1ccc(Oc2ccc(OC(F)(F)F)cc2)cc1` (centres undefined), the pIC50 in data set [1] is 9.52; against Interstitial collagenase, under 4.30; in data set [3] it was 9.36.
For the compound `O=CN(O)C(CSc1cccs1)CS(=O)(=O)c1ccc(Oc2ccc(OC(F)(F)F)cc2)cc1` (centres undefined), the pIC50 in data set [1] is 8.01; at Interstitial collagenase, 5.17; in data set [3] it was 8.44.
In general, half-life refers to how long it takes for the measured level to halve. On to `CN(C)CC(CS(=O)(=O)c1ccc(Oc2ccc(OC(F)(F)F)cc2)cc1)N(O)C=O` (centres undefined), for which the pIC50 is 9.05 in data set [1], 5.28 against Interstitial collagenase and 8.89 in data set [3]. Moreover, in data set [4], the half-life is 2.2 h. Besides, the area under the curve (AUC) in data set [2] was 3 µM·h.
As for `CN(C)S(=O)(=O)CC(CS(=O)(=O)c1ccc(Oc2ccc(OC(F)(F)F)cc2)cc1)N(O)C=O` (centres undefined), the pIC50 in data set [1] was 8.14; against Interstitial collagenase, 5.18; in data set [3] it was 10.01. This compound also returned an AUC in data set [2] of 4 µM·h.
As for `CC1(C)NC(=O)N(CC(CS(=O)(=O)c2ccc(-c3ccc(C#N)cc3)cc2)N(O)C=O)C1=O` (centres undefined), the pIC50 in data set [1] was 8.39; against Interstitial collagenase, 7.44; in data set [3], 9.47. In addition, the half-life in data set [4] was 1.1 h.
On to `COCC(CS(=O)(=O)c1ccc(Oc2ccc(OC(F)(F)F)cc2)cc1)N(O)C=O` (centres undefined), for which the pIC50 in data set [1] was 9.05; against Interstitial collagenase it was under 4.30; in data set [3], 8.62.
With `CN(CC(CS(=O)(=O)c1ccc(Oc2ccc(OC(F)(F)F)cc2)cc1)N(O)C=O)S(C)(=O)=O` (centres undefined), the pIC50 in data set [1] was 8.77; on Interstitial collagenase it was 5.70; in data set [3] it was 7.92.
Regarding `CC1(C)OC[C@@H]([C@@H](CS(=O)(=O)c2ccc(Oc3ccc(OC(F)(F)F)cc3)cc2)N(O)C=O)O1` (stereo in doubt; 19x), the values for the pIC50 (in data set [1]; against Interstitial collagenase; in data set [3]) were 6.32, under 4.30 and 6.59, respectively.
Take `O=CN(O)C(CS(=O)(=O)c1ccc(Oc2ccc(OC(F)(F)F)cc2)cc1)CS(=O)(=O)N1CCOCC1` (centres undefined): the values for the pIC50 (in data set [1]; against Interstitial collagenase; in data set [3]) were 9.07, 5.60 and 9.41, respectively. In data set [2], this compound displayed an area under the curve (AUC) of 3 µM·h.
As for `O=CN(O)C(CS(=O)(=O)c1ccc(Oc2ccc(OC(F)(F)F)cc2)cc1)c1ccccn1` (centres undefined), the pIC50 in data set [1] was 8.66; against Interstitial collagenase, under 4.30; in data set [3], 8.77. The compound also returned an AUC in data set [2] of 1 µM·h.
Consider `CC1(C)OC[C@H]([C@@H](CS(=O)(=O)c2ccc(Oc3ccc(OC(F)(F)F)cc3)cc2)N(O)C=O)O1` (stereo in doubt; 19w), for which the figures for the pIC50 (in data set [1]; against Interstitial collagenase; in data set [3]) were 8.85, under 4.30 and 7.60, respectively.
On to `CC1(C)NC(=O)N(CC(CS(=O)(=O)c2ccc(-c3ccc(C(F)(F)F)cc3)cc2)N(O)C=O)C1=O` (centres undefined), for which the values for the negative-log IC50 (pIC50) in data set [1] and in data set [3] were 8.00 and 9.35, respectively. The half-life in data set [4] was 3.4 h. This compound displayed an area under the curve (AUC) in data set [2] of 4 µM·h.
Consider `O=CN(O)C(CS(=O)(=O)c1ccc(Oc2ccc(OC(F)(F)F)cc2)cc1)c1ccccc1` (centres undefined), for which the values for the pIC50 (in data set [1]; against Interstitial collagenase; in data set [3]) were 8.39, under 4.30 and 8.13, respectively.
On to `O=CN(O)C(CCC(=O)N1CCOCC1)CS(=O)(=O)c1ccc(Oc2ccc(OC(F)(F)F)cc2)cc1` (centres undefined), for which the negative-log IC50 (pIC50) in data set [1] is 8.70; on Interstitial collagenase, under 4.30; in data set [3] it was 8.59. Besides, in data set [4], the half-life is 8.6 h.
As to `CS(=O)(=O)N1CCN(CCC(CS(=O)(=O)c2ccc(Oc3ccc(OC(F)(F)F)cc3)cc2)N(O)C=O)CC1` (centres undefined), the pIC50 is 9.10 in data set [1], under 4.30 on Interstitial collagenase and 9.48 in data set [3]. The same compound came in with an AUC in data set [2] of 41 µM·h.
Turning to `CC1(C)NC(=O)N(CC(CS(=O)(=O)c2ccc(-c3cccc(CC#N)c3)cc2)N(O)C=O)C1=O` (centres undefined), the pIC50 in data set [1] was 9.04; at Interstitial collagenase it was 7.11; in data set [3], 9.46. This compound also gave a half-life in data set [4] of 0.5 h.
For `CCCCOc1ccc(-c2ccc(S(=O)(=O)CC(CN3C(=O)NC(C)(C)C3=O)N(O)C=O)cc2)cc1` (centres undefined), the results for the pIC50 (in data set [1]; against Interstitial collagenase; in data set [3]) were 8.21, 6.62 and 8.62, respectively.
Take `O=CN(O)C(CO)CS(=O)(=O)c1ccc(Oc2ccc(OC(F)(F)F)cc2)cc1` (centres undefined): the negative-log IC50 (pIC50) is 9.59 in data set [1] and 9.46 in data set [3]. The same compound showed a half-life in data set [4] of 1 h.
In the case of `O=CN(O)C(CCN1CCOCC1)CS(=O)(=O)c1ccc(Oc2ccc(OC(F)(F)F)cc2)cc1` (centres undefined), the negative logarithm of the IC50 (pIC50) in data set [1] is 8.77; at Interstitial collagenase, under 4.30; in data set [3], 9.24. Further, the half-life in data set [4] was 1.4 h. In data set [2], this compound came in with an AUC of 10 µM·h.
For the compound `CN1C(=O)N(CC(CS(=O)(=O)c2ccc(Oc3ccc(Cl)cc3)cc2)N(O)C=O)C(=O)C1(C)C` (centres undefined), the pIC50 in data set [1] is 8.85; against Interstitial collagenase, 6.55; in data set [3], 9.14. In data set [4], this compound gave a half-life of 11.7 h. This compound also returned an AUC in data set [2] of 13 µM·h.
In the case of `CSc1ccc(-c2ccc(S(=O)(=O)CC(CN3C(=O)NC(C)(C)C3=O)N(O)C=O)cc2)cc1` (centres undefined), the pIC50 in data set [1] was 8.96; at Interstitial collagenase it was 8.54; in data set [3] it was 9.17.
Take `COC(=O)c1ccc(CCC(CS(=O)(=O)c2ccc(Oc3ccc(OC(F)(F)F)cc3)cc2)N(O)C=O)cc1` (centres undefined): the pIC50 in data set [1] was 9.01; against Interstitial collagenase it was under 4.30; in data set [3] it was 7.47.
Consider `O=CN(O)C(CS(=O)(=O)c1ccc(Oc2ccc(OC(F)(F)F)cc2)cc1)[C@H](O)CO` (some centres undefined), for which the pIC50 in data set [1] was 10.04; on Interstitial collagenase, under 4.30; in data set [3], 9.44. Besides, the AUC in data set [2] worked out at 3 µM·h.
As to `O=CN(O)C(CS(=O)(=O)c1ccc(Oc2ccc(OC(F)(F)F)cc2)cc1)c1ccc(C(F)(F)F)cc1` (centres undefined), the values for the pIC50 (in data set [1]; against Interstitial collagenase; in data set [3]) were 7.43, under 4.30 and 7.21, respectively.
Take `CN1C(=O)N(CC(CS(=O)(=O)c2ccc(Oc3ccc(OC(F)(F)F)cc3)cc2)N(O)C=O)C(=O)C1(C)C` (centres undefined): the pIC50 is under 4.30 against Interstitial collagenase and 8.74 in data set [3]. Also, the half-life in data set [4] is 0.7 h. Moreover, the AUC in data set [2] amounted to 1 µM·h.
For `Cn1ccc(=O)n(CC(CS(=O)(=O)c2ccc(Oc3ccc(OC(F)(F)F)cc3)cc2)N(O)C=O)c1=O` (centres undefined), the pIC50 in data set [1] is 8.85; at Interstitial collagenase, 5.00; in data set [3], 9.04. The compound also had an AUC in data set [2] of 11 µM·h.
In the case of `O=CN(O)C(CS(=O)(=O)c1ccc(Oc2ccc(OC(F)(F)F)cc2)cc1)C1CCCO1` (centres undefined), the negative-log IC50 (pIC50) in data set [1] was 9.49; on Interstitial collagenase, under 4.30; in data set [3] it was 9.21. This compound came in with an AUC in data set [2] of 26 µM·h.
Taken in the same sequence, the figures for `CC1(C)NC(=O)N(CC(CS(=O)(=O)c2ccc(Oc3ccc(OC(F)(F)F)cc3)cc2)N(O)C=O)C1=O` (centres undefined) were 8.70, 6.09, 8.89 and 8 µM·h.
Taken in the same sequence, the figures for `CC1(C)NC(=O)N(CC(CS(=O)(=O)c2ccc(-c3ccc(OC(F)(F)F)cc3)cc2)N(O)C=O)C1=O` (centres undefined) were 9.47, 7.09, 9.07 and 5 µM·h.
Take `CN1C(=O)N(CC(CS(=O)(=O)c2ccc(Oc3ccc(C#N)cc3)cc2)N(O)C=O)C(=O)C1(C)C` (centres undefined): the figures for the pIC50 (in data set [1]; on Interstitial collagenase; in data set [3]) were 8.74, 5.60 and 8.85, respectively.
